Results as given in patent US20240294478A1, “ANTI-CANCER COMPOUNDS AND METHODS OF USE” (YALE UNIVERSITY, priority 2021, published 2024).
Where two headings read alike, the source gives them in different places.

What was measured:
MGMT+ LN229 cells = assay: Clonogenic survival assay, LN229 MGMT+ cells; assay type: cell-based, human
Procedure: (§1) In vitro clonogenic survival assays (CSAs) were performed using four isogenic LN229 glioblastoma cell lines.
(§2) Clonogenic Cell Survival Assay. Cells of each line were pretreated with the test drug in culture for 48-72 hours at the specified dilutions. The cells were then immediately seeded in six-well plates in triplicate at three-fold dilutions, ranging from 9000 to 37 cells per well. Depending on colony size, these plates were kept in the incubator for 10 to 14 days. After incubation, colonies were washed in phosphate-buffered saline (PBS) and stained with crystal violet. Colonies were counted by hand. Counts were normalized to plating efficiency of the corresponding treatment condition.

LN229 MGMT−/MMR− cells = assay: Short-term cell viability assay, LN229 MGMT-/MMR- (shRNA targeting MSH2); assay type: cell-based, human; settings: for IC50: Homo sapiens, read-out: IC50 against LN229 cell lines, MGMT− MMR−; for activity in MGMT−/MMR− cells, in words: LN229 MGMT−/MMR−
Procedure: (§3) LN229 MGMT- and MGMT+ cell lines were a gift from B. Kaina (Johannes Gutenberg University Mainz, Mainz, Germany) and grown in Gibco® Duilbecco's Modified Eagle Medium with 10% fetal bovine serum (DMEM). For each compound tested, the relationship between MGMT status and MMR status and compound activity, in terms of IC50 values ([…]), was determined by the following method. On day 1, LN229 isogenic cells of varying MGMT and MMR status were seeded in 96 well format at a density of 2000 cells/well in 100 μL of DMEM media and allowed to adhere overnight. On day 2, a drug master plate was made with 100×the desired maximal concentration of test compound and serially diluted by 2 until 100×the minimal desired concentration, with one DMSO control. Then daughter plates were created with varied concentrations from 3-times the minimal concentration to 3-times the maximal desired concentration. Afterwards, 50 μL of daughter drug plate was added to 100 μL of the seeded cells for a final concentration of 1×in triplicate. Cells were allowed to grow for 6 days. On day 7, the cells were fixed, and stained with Hoechst nuclear dye and imaged to determine growth inhibition.
For each compound tested, the relationship between MGMT status and MMR status and compound activity, in terms of IC50 values (in μM), was determined. In addition, for each compound, the therapeutic index (TI) was calculated, according to the equation MGMT TI=IC50 (MGMT+/MMR+) divided by IC50 (MGMT−/MMR+). […] MMR RI (resistance index)=IC50 (MGMT−/MMR−) divided by IC50 (MGMT−/MMR+).
Short-term Cell Viability Assay. Cells were seeded in 96-well plates at 1000 or 2000 cells/well and allowed to adhere at 23° C. for 60 min and then incubated overnight at 37° C. […] Cells were imaged on a Cytation 3 imaging reader (BioTek) and quantified using CellProfiler software. For in vitro short-term growth delay experiments, IC50 values were determined from the nonlinear regression equation, [inhibitor] vs normalized response with variable slope.

LN229 MGMT−/MMR+ cells = assay: Short-term cell viability assay, LN229 MGMT-/MMR+; assay type: cell-based, human; settings: for IC50: Homo sapiens, read-out: IC50 against LN229 cell lines, MGMT− MMR+
Procedure: as §3
(§4) For each compound tested, the relationship between MGMT status and MMR status and compound activity, in terms of IC50 values (in μM), was determined. In addition, for each compound, the therapeutic index (TI) was calculated, according to the equation MGMT TI=IC50 (MGMT+/MMR+) divided by IC50 (MGMT−/MMR+). The T1 indicates the efficacy of a compound in treating the targeted MGMT-cancer cells as compared to potential for the same compound to damage, or have adverse effects against, normal cells which are MGMT+cells, The higher the value of the TI, the safer the compound is. […] MMR RI (resistance index)=IC50 (MGMT−/MMR−) divided by IC50 (MGMT−/MMR+). The higher the value of the RI, the less likely that resistance to the compound will develop.
(§5) Short-term Cell Viability Assay. Cells were seeded in 96-well plates at 1000 or 2000 cells/well and allowed to adhere at 23° C. for 60 min and then incubated overnight at 37° C. Cells were treated with indicated concentrations of compounds in triplicate for 4-6 days prior to fixation with 3.7% paraformaldehyde and nuclear staining with 1 μg/mL Hoechst 33342 dye. Cells were imaged on a Cytation 3 imaging reader (BioTek) and quantified using CellProfiler software. For in vitro short-term growth delay experiments, IC50 values were determined from the nonlinear regression equation, [inhibitor] vs normalized response with variable slope.

LN229 MGMT+/MMR− cells = assay: Short-term cell viability assay, LN229 MGMT+/MMR- (shRNA targeting MSH2); assay type: cell-based; settings: Homo sapiens
Procedure: as §3, §4, §5

MGMT− LN229 cells = assay: Clonogenic survival assay, LN229 MGMT- cells; assay type: cell-based, human
Procedure: as §1, §2

LN229 MGMT+/MMR+ cells = assay: Short-term cell viability assay, LN229 MGMT+/MMR+; assay type: cell-based; settings: Homo sapiens, read-out: IC50 against LN229 cell lines, MGMT+ MMR+
Procedure: as §3, §4, §5

[1] = test system: four isogenic LN229 glioblastoma cell lines; assay: Short-term cell viability assays, statements across the isogenic lines; assay type: cell-based, human; settings: regardless of MMR status
Procedure: as §3, §4, §5

[2] = LN-229, 144 h, Table 1, 6 days growth
[3] = LN-229, 144 h, Table 1, 6 days growth, read-out: IC50 against LN229 cell lines, MGMT+ MMR−
[4] = LN-229, 144 h, Table 1, 6 days growth, Hoechst nuclear count

## O=NN(CCCl)C(=O)NC1CCCCC1 [CCNU, 1-(2-chloroethyl)-3-cyclohexyl-1-nitrosourea, reference compound]
MGMT+ LN229 cells; irrespective of MMR status
  clonogenic survival, activity in MGMT+ cells: cytotoxic to MGMT+cells
LN229 MGMT−/MMR− cells; LN-229, Table II
  IC50: 4.2 ± 0.2 µM
LN229 MGMT−/MMR− cells
  activity in MGMT−/MMR− cells, in words: effective against MGMT−/MMR− cells
LN229 MGMT−/MMR− cells; Table II, IC50 (MGMT−/MMR−) divided by IC50 (MGMT−/MMR+)
  MGMT− RI (resistance index): 0.7
LN229 MGMT−/MMR+ cells; LN-229, Table II
  IC50: 6.3 ± 0.3 µM
LN229 MGMT−/MMR+ cells; LN229 isogenic lines
  TI / RI, in words: poor TI
LN229 MGMT−/MMR+ cells; Table II, IC50 (MGMT+/MMR+) divided by IC50 (MGMT−/MMR+)
  MGMT− TI (therapeutic index): 3.4
LN229 MGMT+/MMR− cells; LN-229, Table II, read-out: IC50 against LN229 cell lines, MGMT MMR−
  IC50: 26.8 ± 7.3 µM
MGMT− LN229 cells; isogenic cells lacking MMR
  clonogenic survival, activity in MMR− cells: effective in MMR− cells
LN229 MGMT+/MMR+ cells; LN-229, Table II
  IC50: 21.6 ± 3.2 µM

## NC(=O)c1[nH]cnc1/N=N/NCCF [Compound E1, 5-[(1E)-3-(2-fluoroethyl)triaz-1-en-1-yl]-1H-imidazole-4-carboxamide]
MGMT+ LN229 cells; at concentrations as high as 1000 μM of E1
  surviving fraction of MGMT+ cells: above 0.1
MGMT+ LN229 cells; at the same concentration (less than 100 μM of E1), regardless of MMR status
  surviving fraction of MGMT+ cells: ~1.0
LN229 MGMT−/MMR− cells; [2]
  IC50: 22 ± 1 µM
LN229 MGMT−/MMR− cells
  activity in MGMT−/MMR− cells, in words: exquisite sensitivity
LN229 MGMT−/MMR+ cells; [2]
  IC50: 24 ± 2 µM
LN229 MGMT+/MMR− cells; [3]
  IC50: > 100 µM
[1]
  activity in MGMT+ cells, in words: limited activity
MGMT− LN229 cells; at less than 100 μM of E1, regardless of MMR status
  surviving fraction of MGMT− cells: dropped sharply
LN229 MGMT+/MMR+ cells; [4]
  IC50: > 100 µM

## NC(=O)c1nc[nH]c1/N=N/N(CCF)C(=O)Cc1ccccc1 [Compound E2, (E)-5-(3-(2-fluoroethyl)-3-(2-phenylacetyl)triaz-1-en-1-yl)-1H-imidazole-4-carboxamide]
LN229 MGMT−/MMR− cells; [2]
  IC50: 21 ± 1 µM
LN229 MGMT−/MMR+ cells; [2]
  IC50: 28 ± 1 µM
LN229 MGMT+/MMR− cells; [3]
  IC50: 72 ± 30 µM
LN229 MGMT+/MMR+ cells; [4]
  IC50: > 100 µM

## CC(=O)N(CCF)/N=N/c1[nH]cnc1C(N)=O [Compound E3, (E)-5-(3-acetyl-3-(2-fluoroethyl)triaz-1-en-1-yl)-1H-imidazole-4-carboxamide]
LN229 MGMT−/MMR− cells; [2]
  IC50: 46 ± 4 µM
LN229 MGMT−/MMR− cells
  activity in MGMT−/MMR− cells, in words: exquisite sensitivity
LN229 MGMT−/MMR+ cells; [2]
  IC50: 40 ± 2 µM
LN229 MGMT+/MMR− cells; [3]
  IC50: > 100 µM
[1]
  activity in MGMT+ cells, in words: limited activity
LN229 MGMT+/MMR+ cells; [4]
  IC50: > 100 µM
